Entries after “also recorded” stand apart in the source; their conditions may differ.
What was measured:
[1] = tested on: SJL/J mice infected with TMEV; assay: Theiler's murine encephalomyelitis virus (TMEV) model; assay type: in vivo, mouse
Method: Susceptible SJL/J mice (6 weeks old), previously anesthetized with isoflurane, were inoculated in the cerebral parenchyma with 2 × 10^6 plaque forming units (pfu) of the Daniel’s strain of TMEV, diluted in 30 μL of Dulbecco’s Modified Eagle Medium (DMEM) supplemented with 5% fetal bovine serum (FBS). The injection takes place in the right hemisphere of the cerebral cortex using a Hamilton syringe coupled to a pipette tip in such a way that it allows for an exposure of the needle of about 2–3 mm; thus, the virus is always injected at the same depth. Sham animals are subjected to the same protocol, but they only received 30 µL of DMEM supplemented with 5% fetal bovine serum. […] Control mice were treated with vehicle [2% v/v Tween-80 + 98% HPβCD (13% w/v)] following the same administration regime (Figure 4a). The animals were weighed every week from the onset of infection and clinical signs were evaluated using the criterion described by Moses Rodriguez (Mayo Clinic), source of the Daniel’s strain of TMEV to assess the severity of the disease by the general appearance: Score 1 = Shaggy and scruffy hair; 2 = scruffy appearance and hunched back; 3 = no spontaneous movement, reduced induced activity; and Gait: Score 1 = mild ataxia with inconsistent waddling gait; 2 = moderate ataxia with consistent waddling gait; 3 = severe ataxia with reduced righting response; 4 = spastic paresis of hind legs. The score of the animals and motor behavior were analyzed by trained observers blind to treatment and experimental groups.
The screening for locomotor activity was performed by analyzing spontaneous motor activity using an Activity Cage (Activity Monitor System Omnitech Electronics, Inc., Columbus, OH, USA) and by evaluating the mice performance in the Rotarod test. The activity cage consists of a four-compartment metacrylate cage, surrounded by sensors in such a way that it registers the movements of the mouse in both vertical and horizontal position and ambulation. The test consists of introducing the mice into two compartments of the cage placed diagonally so as not to interfere with the sensors of the other mouse. During two five-minute cycles (0–5 min, 5–10 min), horizontal activity (HACTV) or vertical activity (VACTV) are recorded. The first cycle evaluates the spontaneous activity in a new environment and the second measures the activity of the animal once habituated to the new environment. This task was performed on days 60, 70, 78, and 86 post-infection. The rotarod (Ugo Basile, Milan, Italia) consists of a rotating cylinder (roll) suspended above a cage floor turning at a constant speed or acceleration. The system is completed with a stopwatch for each compartment that stops when the mouse falls from the roll to a lever on the bottom of the device. One week prior to the test, mice were trained and familiarized with the test for one minute at a constant speed. The length of time that mice stay on the rotating roll is a measure of their balance and motor coordination. The test consists of measuring the time that mice remain on the roll with constant acceleration for a maximum time of five minutes. Mice that developed strategies to stay on the roll (p.e. seeking support on the wall) were excluded from evaluation. The rotarod test was performed on day 72, 78, and 86 post-infection.
Cervical and lumbar spinal cord segments of spinal cords obtained from EAE mice sacrificed on day 17 or 26 post-immunization were divided and processed for inclusion and sectioning in paraffin and for inclusion in an optimal cutting temperature (OCT) compound and future cryosectioning of the samples. Spinal cord segments were immediately fixed with buffered 10% formalin for 48 h, dehydrated and included in paraffin using standard techniques. […]

lymphocytes = assay: GLP toxicological studies, lymphocyte count, dogs; assay type: in vivo, Beagle dogs; conditions: mean ± SD
Excerpt: (§1) T r eat m e nt N Ly m p h o c y te s Equivalent m ou se d o se
(§2) ( mg /k g p. o. ga va g e) (109/ L ) ( mg /k g p.o ga va ge)
(§3) 6 m ont h s W i sta r r at s
(§4) 9 m ont h s Be ag le d og s
(§5) Eff ec t of t r ea t me nt wi t h O RY-2 00 1 a d mi ni st e r e d by or al ga va ge o n l y m ph oc yt e s ob se r ve d i n G LP
(§6) t ox i c ol ogi c a l st udi e s i n r at a nd do g. A ni ma l s we r e t re a t e d or al l y (fi ve c o ns e c ut i ve da ys/ we e k) by ga va ge
(§7) 28 da ys or 6 mo nt hs ( ra t s) a nd 28 da ys or 9 mo nt hs (dogs). Data re prese nt de me a n ± S D. T he e q ui va l e n t
(§8) dos e i n m o use i s i n di c at e d. 1-wa y A N OV A a n d D u n ne t t’ s M ul ti pl e C o m pa ri so n t e st wa s use d.

circulating lymphocytes = assay: Toxicity studies, overall statements (circulating lymphocytes, gastrointestinal toxicity); assay type: in vivo, rat and dog; conditions: for total number of circulating lymphocytes: at doses effective in EAE and TMEV models
Excerpt: as §1, §2, §3, §4, §5, §6, §7, §8

Structure (SMILES): Nc1nnc(CN[C@@H]2C[C@H]2c2ccc(OCc3ccccc3)cc2)o1 [ORY-2001]
- CD4 and CD8 lymphocytes in spinal cord parenchyma ([1]; p.o. 0.3 and 1.0 mg/kg): decreased the accumulation of CD4 and CD8 lymphocytes into the parenchyma
- body weight ([1]; p.o. 0.3 and 1.0 mg/kg): did not produce any body weight changes
- horizontal activity (activity cage) ([1]; p.o. 0.3 and 1.0 mg/kg): significantly improved the motor activity in the horizontal activity
- infiltration of immune cells into the spinal cord ([1]; p.o. 0.3 and 1.0 mg/kg): diminished after ORY-2001 treatment
- other motor deficits (vertical activity, rotarod) ([1]; p.o. 0.3 and 1.0 mg/kg): partially reduced other motor deficits
- clinical score ([1]; p.o. 0.3 and 1.0 mg/kg, days 72-76 and 79-83 post-infection): reduced the clinical score
- astroglial activation ([1]; spinal cord): partially limited astroglial activation
- axon integrity ([1]; spinal cord): increased axon integrity
- microglial activation (AIF-1 positive cells) ([1]; spinal cord): significantly reduced microglial activation
- Lymphocytes (lymphocytes; 9 months Beagle dogs, 0.025 mg/kg p.o. gavage (equivalent mouse dose 0.15)): 2.10 ± 0.60 109/L
- Lymphocytes (lymphocytes; 9 months Beagle dogs, 0.075 mg/kg p.o. gavage (equivalent mouse dose 0.45)): 2.90 ± 0.30 109/L
- Lymphocytes (lymphocytes; 9 months Beagle dogs, 0.150 mg/kg p.o. gavage (equivalent mouse dose 0.90)): 2.75 ± 1.04 109/L
- Lymphocytes (lymphocytes; 28 d Beagle dogs, 0.025 mg/kg p.o. gavage (equivalent mouse dose 0.15)): 3.31 ± 0.41 109/L
- Lymphocytes (lymphocytes; 28 d Beagle dogs, 0.075 mg/kg p.o. gavage (equivalent mouse dose 0.45)): 2.88 ± 1.02 109/L
- Lymphocytes (lymphocytes; 28 d Beagle dogs, 0.225 mg/kg p.o. gavage (equivalent mouse dose 1.35)): 4.33 ± 1.08 109/L
- total number of circulating lymphocytes (circulating lymphocytes): did not significantly impact the total number of circulating lymphocytes
- total number of circulating lymphocytes (circulating lymphocytes; listed as vafidemstat): do not significantly impact the total number of circulating lymphocytes; also recorded: do not significantly affect hematology or lymphocyte counts
- gastrointestinal toxicity (circulating lymphocytes; at effective doses, listed as vafidemstat): did not induce any signs of gastrointestinal toxicity; also recorded: without signs of gastro-intestinal toxicity

Reference: paper PMC9323733, “Efficacy of Vafidemstat in Experimental Autoimmune Encephalomyelitis Highlights the KDM1A/RCOR1/HDAC Epigenetic Axis in Multiple Sclerosis” (Pharmaceutics, 2022)
